The values below come from patent US12552772B2, “2-pyrazole anilines and related analogs for inhibiting YAP/TAZ-TEAD” (KATHOLIEKE UNIVERSITEIT LEUVEN, priority 2021, dated 2026).

Type in all cases: cell-based
The subject of one experiment is NCI-H2052. The experiment in a line: Mesothelioma cell line proliferation assay (ATPlite), NCI-H2052. The following applies: Homo sapiens, NCI-H2052, 144 h, NCI-H2052 cells, 6 days, ATPlite cell viability. Here is the method:
Mesothelioma cell lines, NCI-H226 and NCI-H2052 (all sourced from the ATCC cell culture collection) are plated in 96-well plates (Corning® 96 Well White Polystyrene Microplate clear flat bottom, white polystyrene (TC-Treated)), at 1500 cells/well in full medium (RPMI 1640 ATCC modification with L-glutamine, HEPES, Phenol Red, Sodium Pyruvate, High glucose, Low sodium bicarbonate and 10% fetal bovine serum). Cells are incubated overnight at 37° C. in an incubator with 5% CO2. Then compounds, dissolved in DMSO, are added in dose-response. Cells are incubated with compound dilutions for another 6 days at 37° C. in an incubator with 5% CO2. Cell viability is quantitated using the ATPlite kit (Perkin-Elmer) and the luminescence is read-out using an Envision instrument (Perkin-Elmer). The amount of relative light units produced using the ATPlite kit is used to calculated percent of inhibition.
The activities of example compounds tested are depicted in the table below. The activity ranges A, B and C refer to EC50 values in the mesothelioma cell line proliferation assay as described as follows: “A”: EC50<1 μM; “B”: 1 μM s EC50≤10 μM and “C”: EC50>10 μM. NT: not tested.

Experiment [1] has as its system YAP/TAZ-TEAD transcription. Put plainly: Reporter gene assay for measuring the inhibition of YAP/TAZ-TEAD transcription (TEAD-responsive element luciferase reporter in Hek293T cells). The settings on record: Homo sapiens, HEK-293T, 24 hours incubation. Summed up: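 Hek293T cells transiently transfected with a TEAD-responsive element luciferase reporter were plated onto compounds and incubated 24 h at 37 °C/5% CO2. SteadyLite luminescence gave percent inhibition, normalised to vehicle (0%) and positive control inhibitor (100%); EC50 derived.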

Another experiment relates to NCI-H226. The experiment in a line: Mesothelioma cell line proliferation assay (ATPlite), NCI-H226. The settings on record: Homo sapiens, 144 h; NCI-H226 cells, 6 days, ATPlite cell viability. Summed up: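 Mesothelioma cells seeded at 1500 cells/well in RPMI 1640 with 10% FBS, incubated overnight, then treated with compound dose-response in DMSO for 6 days at 37° C, 5% CO2. Viability read by ATPlite luminescence; percent inhibition used to derive EC50.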

As for `C=CC(=O)NCc1ccc(-c2ccc(F)cc2)cc1-c1nnn(C)n1` [compound 188, N-((4′-fluoro-3-(2-methyl-2H-tetrazol-5-yl)-[1,1′-biphenyl]-4-yl)methyl)acrylamide], the EC50 (with NCI-H2052; in experiment [1]; with NCI-H226) was under 1000 nM throughout.
`C=CC(=O)NCc1ccc(-c2ccc(F)cc2)cc1-c1nnn(C(F)F)n1` [compound 190, N-((3-(2-(difluoromethyl)-2H-tetrazol-5-yl)-4′-fluoro-[1,1′-biphenyl]-4-yl)methyl)acrylamide]: the values for the EC50 (in the experiment with NCI-H2052; in experiment [1]; in the experiment on NCI-H226) were 1000 to 10000 nM, under 1000 nM and under 1000 nM, respectively.
Consider `C=CC(=O)NCc1ccc(-c2ccc(F)cc2)nc1-c1ccn(C)n1` [compound 193, N-((6-(4-fluorophenyl)-2-(1-methyl-1H-pyrazol-3-yl)pyridin-3-yl)methyl)acrylamide], for which the EC50 (in the experiment on NCI-H2052; in experiment [1]; in the experiment with NCI-H226) was under 1000 nM in each case.
`C=CC(=O)NCc1ccc(-c2ccccc2)nc1-c1ccn(C)n1` [compound 194, N-((2-(1-methyl-1H-pyrazol-3-yl)-6-phenylpyridin-3-yl)methyl)acrylamide]: the EC50 (with NCI-H2052; in experiment [1]; with NCI-H226) was under 1000 nM each time.
For `C=CC(=O)NCc1ccc(-c2ccc(F)cc2)nc1-c1ccn(C(F)F)n1` [compound 198, N-((2-(1-(difluoromethyl)-1H-pyrazol-3-yl)-6-(4-fluorophenyl)pyridin-3-yl)methyl)acrylamide], the EC50 (in the experiment with NCI-H2052; in experiment [1]; in the experiment with NCI-H226) was under 1000 nM in each case.
As to `C=CC(=O)NCc1ncc(-c2ccc(F)cc2)cc1-c1ccn(C)n1` [compound 201, N-((5-(4-fluorophenyl)-3-(1-methyl-1H-pyrazol-3-yl)pyridin-2-yl)methyl)acrylamide], the EC50 (in the experiment on NCI-H2052; in experiment [1]; in the experiment on NCI-H226) was under 1000 nM in each case.
With `C=CC(=O)NCc1ncc(-c2ccc(F)cc2)cc1-c1ccn(C2CC2)n1` [compound 202, N-((3-(1-cyclopropyl-1H-pyrazol-3-yl)-5-(4-fluorophenyl)pyridin-2-yl)methyl)acrylamide], the EC50 (with NCI-H2052; in experiment [1]; with NCI-H226) was under 1000 nM each time.
For the molecule `C=CC(=O)NCc1ncc(-c2ccc(F)cc2)cc1-c1ccn(C(F)F)n1` [compound 203, N-((3-(1-(difluoromethyl)-1H-pyrazol-3-yl)-5-(4-fluorophenyl)pyridin-2-yl)methyl)acrylamide], the EC50 (with NCI-H2052; in experiment [1]; in the experiment with NCI-H226) was under 1000 nM each time.
Regarding `C=CC(=O)NCc1cnc(-c2ccc(F)cc2)cc1-c1ccn(C)n1` [compound 205, N-((6-(4-fluorophenyl)-4-(1-methyl-1H-pyrazol-3-yl)pyridin-3-yl)methyl)acrylamide], the EC50 (in the experiment with NCI-H2052; in experiment [1]; in the experiment on NCI-H226) was under 1000 nM throughout.
As for `C=CC(=O)NCc1cnc(-c2ccc(F)cc2)cc1-c1ccn(C2CC2)n1` [compound 206, N-((4-(1-cyclopropyl-1H-pyrazol-3-yl)-6-(4-fluorophenyl)pyridin-3-yl)methyl)acrylamide], the EC50 (with NCI-H2052; in experiment [1]; in the experiment with NCI-H226) was under 1000 nM each time.
`C=CC(=O)NCc1cnc(-c2ccc(F)cc2)cc1-c1ccn(C(F)F)n1` [compound 207, N-((4-(1-(difluoromethyl)-1H-pyrazol-3-yl)-6-(4-fluorophenyl)pyridin-3-yl)methyl)acrylamide]: the EC50 (in the experiment on NCI-H2052; in experiment [1]; with NCI-H226) was under 1000 nM throughout.
With `C=CC(=O)NCc1cnc(-c2cccc(F)c2)cc1-c1ccn(C(F)F)n1` [compound 211, N-((4-(1-(difluoromethyl)-1H-pyrazol-3-yl)-6-(3-fluorophenyl)pyridin-3-yl)methyl)acrylamide], the half-maximal effective concentration (EC50) is 1000 to 10000 nM in the experiment with NCI-H2052, under 1000 nM in experiment [1] and under 1000 nM in the experiment on NCI-H226.
Turning to `C=CC(=O)NCc1cnc(-c2cccc(Cl)c2)cc1-c1ccn(C(F)F)n1` [compound 213, N-((6-(3-chlorophenyl)-4-(1-(difluoromethyl)-1H-pyrazol-3-yl)pyridin-3-yl)methyl)acrylamide], the EC50 in the experiment with NCI-H2052 was 1000 to 10000 nM; in experiment [1] it was under 1000 nM; in the experiment with NCI-H226 it was under 1000 nM.
Take `C=CC(=O)NCc1cnc(-c2cccc(C(F)(F)F)c2)cc1-c1ccn(C(F)F)n1` [compound 215, N-((4-(1-(difluoromethyl)-1H-pyrazol-3-yl)-6-(3-(trifluoromethyl)phenyl)pyridin-3-yl)methyl)acrylamide]: the EC50 is 1000 to 10000 nM in the experiment with NCI-H2052, under 1000 nM in experiment [1] and under 1000 nM in the experiment with NCI-H226.
For the molecule `C=CC(=O)NCc1cnc(N2CCC(F)(F)CC2)cc1-c1ccn(C(F)F)n1` [compound 221, N-((4-(1-(difluoromethyl)-1H-pyrazol-3-yl)-6-(4,4-difluoropiperidin-1-yl)pyridin-3-yl)methyl)acrylamide], the concentration giving a half-maximal response (EC50) was 1000 to 10000 nM in the experiment on NCI-H2052, under 1000 nM in experiment [1] and under 1000 nM in the experiment with NCI-H226.
With `C=CC(=O)NCc1cc(-c2ccc(F)cc2)cc(-c2cnn(C(F)F)c2)n1` [compound 227, N-((6-(1-(difluoromethyl)-1H-pyrazol-4-yl)-4-(4-fluorophenyl)pyridin-2-yl)methyl)acrylamide], the EC50 in the experiment on NCI-H2052 is over 10000 nM; in experiment [1], under 1000 nM; in the experiment on NCI-H226, under 1000 nM.
On to `C=CC(=O)NCc1cnc(-c2ccc(F)cc2)cc1-n1ccc(C)n1` [compound 240, N-((6-(4-fluorophenyl)-4-(3-methyl-1H-pyrazol-1-yl)pyridin-3-yl)methyl)acrylamide], for which the EC50 (with NCI-H2052; in experiment [1]; in the experiment with NCI-H226) was under 1000 nM throughout.
With `C=CC(=O)NCc1ccc(-c2ccc(F)cc2)cc1-n1ccc(C)n1` [compound 241, N-((4′-fluoro-3-(3-methyl-1H-pyrazol-1-yl)-[1,1′-biphenyl]-4-yl)methyl)acrylamide], the EC50 is 1000 to 10000 nM in the experiment with NCI-H2052, under 1000 nM in experiment [1] and under 1000 nM in the experiment with NCI-H226.
In the case of `C=CC(=O)NCc1cnc(-c2ccc(F)cc2)cc1-n1cc(C)cn1` [compound 243, N-((6-(4-fluorophenyl)-4-(4-methyl-1H-pyrazol-1-yl)pyridin-3-yl)methyl)acrylamide], the EC50 with NCI-H2052 was 1000 to 10000 nM; in experiment [1], under 1000 nM; in the experiment with NCI-H226, under 1000 nM.
Consider `C=CC(=O)NCc1cnc(-c2ccc(F)cc2)cc1-n1ncc(C)n1` [compound 244, N-((6-(4-fluorophenyl)-4-(4-methyl-2H-1,2,3-triazol-2-yl)pyridin-3-yl)methyl)acrylamide], for which the EC50 (in the experiment on NCI-H2052; in experiment [1]; with NCI-H226) was under 1000 nM in each case.
Take `C=CC(=O)NCc1cnc(-c2ccc(F)cc2)nc1-c1ccn(C(F)F)n1` [compound 254, N-((4-(1-(difluoromethyl)-1H-pyrazol-3-yl)-2-(4-fluorophenyl)pyrimidin-5-yl)methyl)acrylamide]: the EC50 (in the experiment on NCI-H2052; in experiment [1]; in the experiment on NCI-H226) was under 1000 nM throughout.
